From PubChem BioAssay AID328 (DTP/NCI, 2004)
Several values for one entry are separate records, joined by “and”; a condition that tells them apart may be missing. Equal values may be shown once. Toxic doses and inconclusive results are not listed. How the source made its calls: active means survival T/C of 150% or more; inactive means T/C below 125% in these data.

Test system: BDF1 mice, P388 leukemia ip, median survival T/C
Assay: NCI In Vivo Anticancer Drug Screen. Data for tumor model P388 Leukemia (intraperitoneal) in B6D2F1 (BDF1) mice
Settings: endpoint: median survival time, higher = longer survival
Method in brief: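 Transplantable tumour in mice; compound vs vehicle dosing; survival scored; ratio of treated to control reported.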

[1] = dose: 6.25 mg/kg/injection, schedule: Q01DX009 (ip), vehicle: saline
[2] = dose: 50.0 mg/kg/injection, schedule: Q04DX003 (ip), vehicle: saline
[3] = dose: 100.0 mg/kg/injection, schedule: Q04DX003 (ip), vehicle: saline
[4] = dose: 100.0 mg/kg/injection, schedule: Q04DX003 (ip), vehicle: saline with Tween-80
[5] = dose: 200.0 mg/kg/injection, schedule: Q04DX003 (ip), vehicle: saline with Tween-80
[6] = dose: 400.0 mg/kg/injection, schedule: Q04DX003 (ip), vehicle: saline with Tween-80
[7] = dose: 50.0 mg/kg/injection, schedule: Q01DX009 (ip), vehicle: saline with Tween-80
[8] = dose: 100.0 mg/kg/injection, schedule: Q01DX009 (ip), vehicle: saline with Tween-80
[9] = dose: 25.0 mg/kg/injection, schedule: Q01DX001 (ip), vehicle: saline sonified
[10] = dose: 100.0 mg/kg/injection, schedule: Q01DX001 (ip), vehicle: saline with Tween-80
[11] = dose: 200.0 mg/kg/injection, schedule: Q01DX001 (ip), vehicle: saline with Tween-80

Measured: T/C

C/C(=C\c1ccccc1)[N+](=O)[O-]
inactive: dose: 4.0 mg/kg/injection, schedule: Q01DX009 (ip), vehicle: Klucel (hydroxypropylcellulose) (HPC) 101 % of control | dose: 6.2 mg/kg/injection, schedule: Q01DX009 (ip), vehicle: saline 90 % of control | [1] 100 % of control | dose: 8.0 mg/kg/injection, schedule: Q01DX009 (ip), vehicle: Klucel (hydroxypropylcellulose) (HPC) 108 % of control | dose: 12.5 mg/kg/injection, schedule: Q01DX009 (ip), vehicle: saline 90 % of control and 105 % of control | dose: 25.0 mg/kg/injection, schedule: Q01DX009 (ip), vehicle: Klucel (hydroxypropylcellulose) (HPC) 100 % of control | dose: 25.0 mg/kg/injection, schedule: Q01DX009 (ip), vehicle: saline 90 % of control and 108 % of control and 119 % of control | dose: 25.0 mg/kg/injection, schedule: Q04DX003 (ip), vehicle: Klucel (hydroxypropylcellulose) (HPC) 113 % of control | dose: 30.0 mg/kg/injection, schedule: Q01DX009 (ip), vehicle: Klucel (hydroxypropylcellulose) (HPC) 118 % of control | dose: 44.0 mg/kg/injection, schedule: Q01DX009 (ip), vehicle: Klucel (hydroxypropylcellulose) (HPC) 109 % of control | dose: 50.0 mg/kg/injection, schedule: Q01DX009 (ip), vehicle: Klucel (hydroxypropylcellulose) (HPC) 87 % of control | dose: 50.0 mg/kg/injection, schedule: Q01DX009 (ip), vehicle: saline 115 % of control and 123 % of control | dose: 50.0 mg/kg/injection, schedule: Q04DX003 (ip), vehicle: Klucel (hydroxypropylcellulose) (HPC) 113 % of control | [2] 100 % of control | dose: 67.0 mg/kg/injection, schedule: Q01DX009 (ip), vehicle: Klucel (hydroxypropylcellulose) (HPC) 95 % of control | [3] 109 % of control | dose: 200.0 mg/kg/injection, schedule: Q04DX003 (ip), vehicle: saline 100 % of control | dose: 400.0 mg/kg/injection, schedule: Q04DX003 (ip), vehicle: saline 109 % of control

c1ccc(P(=NC2CCCC2)(c2ccccc2)c2ccccc2)cc1
inactive: [4] 110 % of control | [5] 100 % of control | [6] 110 % of control

O=C(/C=C/c1ccc(OCc2ccccc2)cc1)c1ccccc1Cl
inactive: [7] 96 % of control | [8] 96 % of control

Cc1ccccc1NC(=O)C1CCC(C)(C(=O)O)C1(C)C (configuration not stated)
inactive: [4] 90 % of control | [5] 100 % of control | [6] 90 % of control

O=c1cc(Cl)[nH]c(=O)[nH]1
inactive: dose: 50.0 mg/kg/injection, schedule: Q04DX003 (ip), vehicle: saline with Tween-80 97 % of control | [4] 114 % of control | [5] 97 % of control | [6] 97 % of control

CCCCCCCCCCCCCCCCSCCCCCCCCCCCSCCCCCCCCCCCCCCCC
inactive: [9] 90 % of control | dose: 50.0 mg/kg/injection, schedule: Q01DX001 (ip), vehicle: saline sonified 90 % of control

CCNC(=O)N(CC(N)=O)c1ncc([N+](=O)[O-])s1
inactive: dose: 12.5 mg/kg/injection, schedule: Q01DX001 (ip), vehicle: saline with Tween-80 98 % of control | dose: 25.0 mg/kg/injection, schedule: Q01DX001 (ip), vehicle: saline with Tween-80 106 % of control | dose: 50.0 mg/kg/injection, schedule: Q01DX001 (ip), vehicle: saline with Tween-80 98 % of control | dose: 50.0 mg/kg/injection, schedule: Q01DX005 (ip), vehicle: saline with Tween-80 94 % of control | [10] 93 % of control | dose: 100.0 mg/kg/injection, schedule: Q01DX005 (ip), vehicle: saline with Tween-80 86 % of control | [11] 98 % of control | dose: 200.0 mg/kg/injection, schedule: Q01DX005 (ip), vehicle: saline with Tween-80 96 % of control

CC(=O)Nc1ccc(NC(=O)c2ccc([As](O)O)cc2)cc1
active: dose: 200.0 mg/kg/injection, schedule: Q01DX009 (ip), vehicle: Klucel (hydroxypropylcellulose) (HPC) 170 % of control | dose: 265.0 mg/kg/injection, schedule: Q01DX009 (ip), vehicle: Klucel (hydroxypropylcellulose) (HPC) 159 % of control
inactive: dose: 29.0 mg/kg/injection, schedule: Q04DX003 (ip), vehicle: Klucel (hydroxypropylcellulose) (HPC) 109 % of control | dose: 45.0 mg/kg/injection, schedule: Q01DX009 (ip), vehicle: saline 102 % of control | dose: 45.0 mg/kg/injection, schedule: Q04DX003 (ip), vehicle: Klucel (hydroxypropylcellulose) (HPC) 113 % of control | dose: 65.0 mg/kg/injection, schedule: Q01DX009 (ip), vehicle: saline 116 % of control

N[C@H](C(=O)O)[C@@H]1CC(Cl)=NO1
active: dose: 0.39 mg/kg/injection, schedule: Q01DX009 (ip), vehicle: saline 150 % of control | dose: 0.78 mg/kg/injection, schedule: Q01DX009 (ip), vehicle: saline 175 % of control | dose: 1.0 mg/kg/injection, schedule: Q01DX009 (ip), vehicle: saline 183 % of control | dose: 1.56 mg/kg/injection, schedule: Q01DX009 (ip), vehicle: saline 175 % of control | dose: 2.0 mg/kg/injection, schedule: Q01DX009 (ip), vehicle: saline 193 % of control | dose: 4.0 mg/kg/injection, schedule: Q01DX009 (ip), vehicle: saline 220 % of control | dose: 8.0 mg/kg/injection, schedule: Q01DX009 (ip), vehicle: saline 250 % of control | dose: 12.5 mg/kg/injection, schedule: Q04DX003 (ip), vehicle: saline 174 % of control | dose: 21.6 mg/kg/injection, schedule: Q04DX003 (ip), vehicle: saline 169 % of control | dose: 25.0 mg/kg/injection, schedule: Q04DX003 (ip), vehicle: saline 220 % of control | [2] 231 % of control | dose: 200.0 mg/kg/injection, schedule: Q04DX003 (ip), vehicle: water 209 % of control | dose: 400.0 mg/kg/injection, schedule: Q04DX003 (ip), vehicle: water 196 % of control
inactive: dose: 3.12 mg/kg/injection, schedule: Q01DX009 (ip), vehicle: saline 95 % of control | dose: 3.12 mg/kg/injection, schedule: Q04DX003 (ip), vehicle: saline 113 % of control | [1] 90 % of control | dose: 16.0 mg/kg/injection, schedule: Q01DX009 (ip), vehicle: saline 118 % of control | dose: 32.0 mg/kg/injection, schedule: Q01DX009 (ip), vehicle: saline 91 % of control | dose: 50.0 mg/kg/injection, schedule: Q04DX003 (ip), vehicle: water 117 % of control | [3] 101 % of control

CN(C)CCCNC(=O)Nc1ccccc1
inactive: dose: 100.0 mg/kg/injection, schedule: Q04DX003 (ip), vehicle: Klucel (hydroxypropylcellulose) (HPC) 95 % of control | dose: 200.0 mg/kg/injection, schedule: Q04DX003 (ip), vehicle: Klucel (hydroxypropylcellulose) (HPC) 104 % of control

Oc1ccccc1C=NCCN1CC1.Oc1ccccc1C=NCCN1CC1.[Cu]
inactive: dose: 6.25 mg/kg/injection, schedule: Q01DX001 (ip), vehicle: saline sonified 104 % of control | dose: 8.25 mg/kg/injection, schedule: Q01DX001 (ip), vehicle: saline 104 % of control | dose: 12.5 mg/kg/injection, schedule: Q01DX001 (ip), vehicle: saline 112 % of control | dose: 18.75 mg/kg/injection, schedule: Q01DX001 (ip), vehicle: saline 124 % of control | [9] 118 % of control

CSc1nc2n(Cc3c[nH]c(=O)[nH]c3=O)cc(C)cc-2c(=O)n1
inactive: dose: 6.25 mg/kg/injection, schedule: Q01DX009 (ip), vehicle: saline with Tween-80 101 % of control | dose: 12.5 mg/kg/injection, schedule: Q01DX009 (ip), vehicle: saline with Tween-80 102 % of control | dose: 25.0 mg/kg/injection, schedule: Q01DX009 (ip), vehicle: saline with Tween-80 95 % of control | [7] 93 % of control | [10] 113 % of control | [11] 106 % of control

Cc1ccc(OCc2c(COc3ccc(Cl)cc3)sc3ccc(Cl)cc23)cc1
inactive: dose: 12.5 mg/kg/injection, schedule: Q04DX003 (ip), vehicle: saline with Tween-80 95 % of control | dose: 25.0 mg/kg/injection, schedule: Q04DX003 (ip), vehicle: saline with Tween-80 87 % of control

CCCCCCCCCCCCCC(=O)CC
inactive: dose: 85.0 mg/kg/injection, schedule: Q04DX003 (ip), vehicle: saline with Tween-80 91 % of control | dose: 135.0 mg/kg/injection, schedule: Q04DX003 (ip), vehicle: saline with Tween-80 91 % of control | [5] 87 % of control

Cc1cccn2c(CCc3nnc4c(C)cccn34)nnc12
inactive: [7] 97 % of control | [8] 93 % of control | dose: 200.0 mg/kg/injection, schedule: Q01DX009 (ip), vehicle: saline with Tween-80 89 % of control
